Legend:
Assay in all cases: Kinase profiling of R428
Type in all cases: biochemical
ROCK-1(h) = ROCK-1(h) (Homo sapiens, UniProt Q13464); conditions: 100 μM ATP, lower number = more robust inhibition
Protocol: (§1) The efficiency of the AXL inhibitor R428 for targeting different kinases was assessed by Kinase Profiling Services using 100 μM ATP concentration (EMD Millipore). R428 was tested at 1 and 10 μM. Table IV lists the kinases profiled along with the efficiency in targeting the kinases with a lower number indicating a more robust inhibition of a particular kinase.

Rsk3(h) = Rsk3(h) (Homo sapiens, UniProt Q15349); conditions: for efficiency in targeting Rsk3(h): 100 μM ATP, lower number = more robust inhibition
Protocol: as §1

PKCβ1(h) = PKCβ1(h) (Homo sapiens, UniProt P05771); conditions: 100 μM ATP, lower number = more robust inhibition
Protocol: as §1

Flt3(h) = target: T1, Flt3(h) (Homo sapiens, UniProt P36888); conditions: for efficiency in targeting Flt3(h): 100 μM ATP, lower number = more robust inhibition
T1 sequence (P36888 27-993): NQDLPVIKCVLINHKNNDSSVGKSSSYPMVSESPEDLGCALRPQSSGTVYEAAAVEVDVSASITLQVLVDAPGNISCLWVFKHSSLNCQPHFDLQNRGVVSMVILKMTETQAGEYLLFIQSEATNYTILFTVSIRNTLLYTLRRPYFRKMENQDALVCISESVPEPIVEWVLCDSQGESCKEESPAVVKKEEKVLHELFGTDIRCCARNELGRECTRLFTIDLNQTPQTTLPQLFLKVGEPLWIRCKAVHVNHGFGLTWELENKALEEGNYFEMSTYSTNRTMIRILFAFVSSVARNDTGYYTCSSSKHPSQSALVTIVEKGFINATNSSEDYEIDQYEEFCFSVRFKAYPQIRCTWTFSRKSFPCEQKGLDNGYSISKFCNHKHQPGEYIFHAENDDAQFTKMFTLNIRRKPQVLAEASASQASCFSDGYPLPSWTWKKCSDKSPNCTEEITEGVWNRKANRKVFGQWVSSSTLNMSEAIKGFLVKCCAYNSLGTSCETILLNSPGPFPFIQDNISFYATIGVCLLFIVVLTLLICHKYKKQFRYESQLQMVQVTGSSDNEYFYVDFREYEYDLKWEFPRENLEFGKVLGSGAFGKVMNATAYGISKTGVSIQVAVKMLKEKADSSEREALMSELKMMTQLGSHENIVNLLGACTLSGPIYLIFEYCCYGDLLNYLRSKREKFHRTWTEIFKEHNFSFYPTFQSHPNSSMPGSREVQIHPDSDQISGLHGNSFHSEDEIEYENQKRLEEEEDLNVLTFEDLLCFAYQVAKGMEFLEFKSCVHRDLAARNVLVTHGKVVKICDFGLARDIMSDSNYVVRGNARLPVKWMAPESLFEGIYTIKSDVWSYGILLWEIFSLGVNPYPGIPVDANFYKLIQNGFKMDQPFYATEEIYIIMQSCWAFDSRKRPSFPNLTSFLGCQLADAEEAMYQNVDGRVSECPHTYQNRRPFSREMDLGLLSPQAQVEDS
Protocol: as §1

Met(h) = Met(h) (Homo sapiens, UniProt P08581); conditions: 100 μM ATP, lower number = more robust inhibition
Protocol: as §1

PKCα(h) = PKCα(h) (Homo sapiens, UniProt P17252); conditions: 100 μM ATP, lower number = more robust inhibition
Protocol: as §1

Aurora-A(h) = target: T2, Aurora-A(h) (Homo sapiens, UniProt O14965); conditions: for efficiency in targeting Aurora-A(h): 100 μM ATP, lower number = more robust inhibition
T2 sequence (O14965 1-403): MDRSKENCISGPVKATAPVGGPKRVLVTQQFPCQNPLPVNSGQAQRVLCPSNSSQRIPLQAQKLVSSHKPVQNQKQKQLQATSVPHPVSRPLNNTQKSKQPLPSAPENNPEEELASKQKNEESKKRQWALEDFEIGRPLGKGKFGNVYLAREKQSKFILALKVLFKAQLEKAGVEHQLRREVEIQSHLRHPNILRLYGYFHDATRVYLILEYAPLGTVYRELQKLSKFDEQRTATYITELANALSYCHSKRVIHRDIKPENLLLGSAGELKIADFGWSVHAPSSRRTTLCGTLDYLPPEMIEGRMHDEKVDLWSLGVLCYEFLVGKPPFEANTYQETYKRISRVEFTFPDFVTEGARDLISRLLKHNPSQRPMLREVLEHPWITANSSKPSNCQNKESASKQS
Protocol: as §1

Eph A 2(h) = Eph A 2(h) (Homo sapiens, UniProt P29317); conditions: 100 μM ATP, lower number = more robust inhibition
Protocol: as §1

Axl(h) = target: T3, Axl(h) (Homo sapiens, UniProt P30530); conditions: for efficiency in targeting Axl(h): 100 μM ATP, lower number = more robust inhibition
T3 sequence (P30530 26-894): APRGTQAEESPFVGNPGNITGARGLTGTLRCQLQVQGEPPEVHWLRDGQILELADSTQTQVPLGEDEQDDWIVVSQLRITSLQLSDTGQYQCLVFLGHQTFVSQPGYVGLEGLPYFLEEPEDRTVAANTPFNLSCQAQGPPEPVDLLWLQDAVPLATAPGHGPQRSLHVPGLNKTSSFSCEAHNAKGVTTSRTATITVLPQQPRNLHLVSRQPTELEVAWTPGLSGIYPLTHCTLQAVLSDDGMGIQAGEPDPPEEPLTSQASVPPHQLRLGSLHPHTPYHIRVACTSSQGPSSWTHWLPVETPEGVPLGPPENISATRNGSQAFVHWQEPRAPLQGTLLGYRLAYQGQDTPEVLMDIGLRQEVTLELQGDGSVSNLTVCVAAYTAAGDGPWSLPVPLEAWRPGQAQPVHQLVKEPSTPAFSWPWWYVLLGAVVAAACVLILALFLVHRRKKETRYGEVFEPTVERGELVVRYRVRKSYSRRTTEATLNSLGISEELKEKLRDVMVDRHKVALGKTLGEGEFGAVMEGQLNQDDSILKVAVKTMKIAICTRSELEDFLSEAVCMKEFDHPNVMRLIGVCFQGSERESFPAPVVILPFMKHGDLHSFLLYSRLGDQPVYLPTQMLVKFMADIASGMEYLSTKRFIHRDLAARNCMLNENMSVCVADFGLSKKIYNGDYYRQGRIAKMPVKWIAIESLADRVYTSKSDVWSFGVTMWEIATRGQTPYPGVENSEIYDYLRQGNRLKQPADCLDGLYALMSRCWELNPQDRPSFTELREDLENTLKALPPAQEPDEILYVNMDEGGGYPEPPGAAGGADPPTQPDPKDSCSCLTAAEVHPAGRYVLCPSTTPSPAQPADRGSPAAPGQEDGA
Protocol: as §1

Rsk3(h), sequence (Q15349 whole entry): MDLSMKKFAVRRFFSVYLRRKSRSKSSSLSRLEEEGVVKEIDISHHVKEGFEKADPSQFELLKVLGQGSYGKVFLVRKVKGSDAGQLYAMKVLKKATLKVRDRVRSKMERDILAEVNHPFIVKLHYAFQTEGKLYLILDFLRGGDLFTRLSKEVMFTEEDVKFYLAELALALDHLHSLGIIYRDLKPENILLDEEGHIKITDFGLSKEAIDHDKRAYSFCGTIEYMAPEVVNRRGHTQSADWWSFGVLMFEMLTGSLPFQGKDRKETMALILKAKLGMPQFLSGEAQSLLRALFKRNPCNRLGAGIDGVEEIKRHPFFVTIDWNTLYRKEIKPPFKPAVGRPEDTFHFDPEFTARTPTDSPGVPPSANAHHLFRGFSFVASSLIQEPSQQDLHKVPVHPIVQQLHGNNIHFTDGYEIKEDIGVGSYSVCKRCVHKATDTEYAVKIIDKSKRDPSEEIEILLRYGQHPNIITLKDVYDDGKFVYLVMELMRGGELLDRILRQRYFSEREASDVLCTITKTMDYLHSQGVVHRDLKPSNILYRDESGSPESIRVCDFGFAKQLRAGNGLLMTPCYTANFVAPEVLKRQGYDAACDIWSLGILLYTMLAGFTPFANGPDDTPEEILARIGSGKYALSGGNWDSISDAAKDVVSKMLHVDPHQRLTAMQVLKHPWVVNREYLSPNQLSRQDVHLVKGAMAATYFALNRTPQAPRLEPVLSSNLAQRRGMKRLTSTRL
Eph A 2(h), sequence (P29317 24-976): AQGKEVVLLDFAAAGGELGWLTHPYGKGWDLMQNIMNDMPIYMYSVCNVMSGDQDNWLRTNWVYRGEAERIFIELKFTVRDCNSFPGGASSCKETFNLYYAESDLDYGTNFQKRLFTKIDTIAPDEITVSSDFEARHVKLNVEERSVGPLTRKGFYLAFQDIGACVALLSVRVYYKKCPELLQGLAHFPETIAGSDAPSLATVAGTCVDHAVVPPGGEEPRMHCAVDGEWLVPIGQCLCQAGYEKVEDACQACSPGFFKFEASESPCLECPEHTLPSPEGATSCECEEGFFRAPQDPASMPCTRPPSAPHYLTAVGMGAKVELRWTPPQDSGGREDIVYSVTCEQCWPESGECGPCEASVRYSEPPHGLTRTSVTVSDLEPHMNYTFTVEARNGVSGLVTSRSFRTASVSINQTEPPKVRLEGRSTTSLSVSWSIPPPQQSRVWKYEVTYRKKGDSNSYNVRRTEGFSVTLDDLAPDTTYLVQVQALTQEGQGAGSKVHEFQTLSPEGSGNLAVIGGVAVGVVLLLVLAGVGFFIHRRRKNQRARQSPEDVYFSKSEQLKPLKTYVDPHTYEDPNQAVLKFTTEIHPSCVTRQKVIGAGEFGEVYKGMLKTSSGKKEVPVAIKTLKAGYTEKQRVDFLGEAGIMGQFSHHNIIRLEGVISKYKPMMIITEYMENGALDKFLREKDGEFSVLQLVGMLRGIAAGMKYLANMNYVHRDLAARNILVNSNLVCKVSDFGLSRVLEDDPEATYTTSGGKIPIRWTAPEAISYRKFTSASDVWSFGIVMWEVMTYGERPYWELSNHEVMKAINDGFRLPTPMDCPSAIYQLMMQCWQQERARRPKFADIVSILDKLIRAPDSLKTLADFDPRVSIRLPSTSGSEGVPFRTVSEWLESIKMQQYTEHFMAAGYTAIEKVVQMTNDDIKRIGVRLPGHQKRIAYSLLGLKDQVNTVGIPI
ROCK-1(h), sequence (Q13464 whole entry): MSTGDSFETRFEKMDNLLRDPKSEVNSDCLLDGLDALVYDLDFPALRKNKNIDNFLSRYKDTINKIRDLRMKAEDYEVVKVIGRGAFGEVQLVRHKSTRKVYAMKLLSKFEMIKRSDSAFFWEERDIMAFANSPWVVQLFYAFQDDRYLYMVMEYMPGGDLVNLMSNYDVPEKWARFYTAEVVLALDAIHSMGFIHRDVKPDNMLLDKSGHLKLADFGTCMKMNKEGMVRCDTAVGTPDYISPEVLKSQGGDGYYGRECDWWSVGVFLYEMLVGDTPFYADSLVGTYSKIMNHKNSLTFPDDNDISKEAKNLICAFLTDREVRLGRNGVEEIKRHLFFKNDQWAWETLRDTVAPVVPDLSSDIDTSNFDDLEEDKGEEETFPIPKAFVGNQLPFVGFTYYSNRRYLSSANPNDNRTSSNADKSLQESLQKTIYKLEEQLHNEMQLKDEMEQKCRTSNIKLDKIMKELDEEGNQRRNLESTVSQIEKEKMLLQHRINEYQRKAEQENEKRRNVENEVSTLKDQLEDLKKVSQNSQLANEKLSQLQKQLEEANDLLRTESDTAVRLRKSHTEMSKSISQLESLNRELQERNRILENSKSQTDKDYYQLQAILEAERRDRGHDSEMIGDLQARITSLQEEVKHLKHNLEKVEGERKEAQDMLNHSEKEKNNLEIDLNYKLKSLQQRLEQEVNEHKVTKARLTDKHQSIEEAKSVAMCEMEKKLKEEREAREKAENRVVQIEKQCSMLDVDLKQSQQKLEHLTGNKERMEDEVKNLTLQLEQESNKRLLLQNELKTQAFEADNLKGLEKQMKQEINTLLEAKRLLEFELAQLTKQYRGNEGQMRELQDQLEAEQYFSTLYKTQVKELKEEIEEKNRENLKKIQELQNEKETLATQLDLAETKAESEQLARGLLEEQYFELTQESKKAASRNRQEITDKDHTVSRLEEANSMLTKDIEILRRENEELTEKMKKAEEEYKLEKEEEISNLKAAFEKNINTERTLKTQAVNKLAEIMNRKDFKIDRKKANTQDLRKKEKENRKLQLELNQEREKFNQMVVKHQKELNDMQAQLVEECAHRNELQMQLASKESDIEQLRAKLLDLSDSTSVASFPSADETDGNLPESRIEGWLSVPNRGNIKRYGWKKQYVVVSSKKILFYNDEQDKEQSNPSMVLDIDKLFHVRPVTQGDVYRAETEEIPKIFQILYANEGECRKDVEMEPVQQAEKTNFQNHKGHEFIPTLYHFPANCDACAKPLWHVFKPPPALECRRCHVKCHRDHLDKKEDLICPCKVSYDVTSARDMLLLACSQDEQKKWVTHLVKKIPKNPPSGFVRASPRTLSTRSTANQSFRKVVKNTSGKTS
PKCβ1(h), sequence (P05771 whole entry): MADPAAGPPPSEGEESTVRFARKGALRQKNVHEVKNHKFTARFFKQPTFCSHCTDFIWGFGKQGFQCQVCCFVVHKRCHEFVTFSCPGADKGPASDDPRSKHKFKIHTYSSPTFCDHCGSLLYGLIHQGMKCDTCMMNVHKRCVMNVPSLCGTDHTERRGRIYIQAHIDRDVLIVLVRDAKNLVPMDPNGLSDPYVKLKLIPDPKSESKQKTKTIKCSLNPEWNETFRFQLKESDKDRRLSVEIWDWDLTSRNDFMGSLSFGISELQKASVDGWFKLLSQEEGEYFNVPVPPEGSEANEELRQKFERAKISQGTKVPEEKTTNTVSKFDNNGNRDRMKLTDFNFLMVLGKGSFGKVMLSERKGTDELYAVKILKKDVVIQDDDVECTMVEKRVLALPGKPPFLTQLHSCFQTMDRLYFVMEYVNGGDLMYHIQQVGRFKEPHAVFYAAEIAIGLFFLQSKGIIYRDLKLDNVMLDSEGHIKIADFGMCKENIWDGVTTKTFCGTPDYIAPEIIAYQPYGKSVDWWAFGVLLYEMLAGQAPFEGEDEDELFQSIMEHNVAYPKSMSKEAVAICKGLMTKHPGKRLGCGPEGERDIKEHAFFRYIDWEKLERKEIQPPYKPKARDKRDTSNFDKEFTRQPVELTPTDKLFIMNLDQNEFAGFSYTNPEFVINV
Met(h), sequence (P08581 25-1390): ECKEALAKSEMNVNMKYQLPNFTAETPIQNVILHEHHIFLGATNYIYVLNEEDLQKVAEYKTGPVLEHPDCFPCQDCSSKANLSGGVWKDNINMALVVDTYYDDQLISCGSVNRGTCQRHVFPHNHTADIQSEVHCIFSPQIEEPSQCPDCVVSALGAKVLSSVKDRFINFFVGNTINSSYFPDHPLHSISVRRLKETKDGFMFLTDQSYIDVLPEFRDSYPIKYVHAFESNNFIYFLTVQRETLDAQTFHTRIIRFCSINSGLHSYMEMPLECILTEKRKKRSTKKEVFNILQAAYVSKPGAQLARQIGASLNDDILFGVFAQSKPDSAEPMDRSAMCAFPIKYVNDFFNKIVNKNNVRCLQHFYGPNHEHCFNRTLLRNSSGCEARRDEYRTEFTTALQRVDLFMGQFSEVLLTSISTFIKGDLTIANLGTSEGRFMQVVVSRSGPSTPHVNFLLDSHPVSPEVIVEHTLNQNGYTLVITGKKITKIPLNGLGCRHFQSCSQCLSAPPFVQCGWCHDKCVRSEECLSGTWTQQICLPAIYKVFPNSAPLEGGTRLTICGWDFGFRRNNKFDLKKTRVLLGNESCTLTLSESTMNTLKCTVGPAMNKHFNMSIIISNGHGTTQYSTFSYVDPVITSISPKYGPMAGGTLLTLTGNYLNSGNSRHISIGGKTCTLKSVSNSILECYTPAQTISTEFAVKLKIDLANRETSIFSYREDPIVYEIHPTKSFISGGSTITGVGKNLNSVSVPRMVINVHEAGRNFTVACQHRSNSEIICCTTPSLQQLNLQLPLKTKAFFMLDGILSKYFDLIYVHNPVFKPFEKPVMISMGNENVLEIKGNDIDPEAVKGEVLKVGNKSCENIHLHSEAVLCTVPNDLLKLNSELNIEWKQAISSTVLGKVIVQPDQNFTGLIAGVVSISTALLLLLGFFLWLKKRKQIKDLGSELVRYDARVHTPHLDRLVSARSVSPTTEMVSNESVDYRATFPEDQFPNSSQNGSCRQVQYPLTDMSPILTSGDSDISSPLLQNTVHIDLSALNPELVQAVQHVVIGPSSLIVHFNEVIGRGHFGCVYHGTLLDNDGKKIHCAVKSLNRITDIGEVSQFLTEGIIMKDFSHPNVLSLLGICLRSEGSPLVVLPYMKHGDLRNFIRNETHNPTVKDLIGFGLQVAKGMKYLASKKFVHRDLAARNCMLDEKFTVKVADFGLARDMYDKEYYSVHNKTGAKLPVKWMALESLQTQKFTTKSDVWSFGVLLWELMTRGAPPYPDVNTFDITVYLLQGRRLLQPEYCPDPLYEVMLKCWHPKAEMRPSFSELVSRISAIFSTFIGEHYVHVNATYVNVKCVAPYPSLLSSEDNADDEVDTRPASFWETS

Question: For `Nc1nc(Nc2ccc3c(c2)CC[C@@H](N2CCCC2)CC3)nn1-c1cc2c(nn1)-c1ccccc1CCC2` [R428, 1H-1,2,4-Triazole-3,5-diamine, 1-(6,7-dihydro-5H-benzo[6,7]cyclohepta[1,2-c]pyridazin-3-yl) N3-[(7S)-6,7,8,9-tetrahydro-7-(1-pyrrolidinyl)-5H-benzocyclohepten-2-yl]-], which “efficiency in targeting ROCK-1(h)” value (ROCK-1(h); R428 @ 1 μM) is on record?
Answer: 93

Question: What about the “efficiency in targeting ROCK-1(h)” value (ROCK-1(h); R428 @ 10 μM) of the same compound?
Answer: 41

Question: What about the “efficiency in targeting Rsk3(h)” value (Rsk3(h); R428 @ 1 μM) of the same compound?
Answer: 2

Question: What about the “efficiency in targeting Rsk3(h)” value (Rsk3(h); R428 @ 10 μM) of the same compound?
Answer: 1

Question: And the “inhibition of RSK3 (in words)” value (Rsk3(h); at 1 and 10 μM)?
Answer: potently inhibits

Question: What about the “efficiency in targeting PKCβ1(h)” value (PKCβ1(h); R428 @ 1 μM) of the same compound?
Answer: 102

Question: What about the “efficiency in targeting PKCβ1(h)” value (PKCβ1(h); R428 @ 10 μM) of the same compound?
Answer: 95

Question: What about the “efficiency in targeting Flt3(h)” value (Flt3(h); R428 @ 1 μM) of the same compound?
Answer: 9

Question: And the “efficiency in targeting Flt3(h)” value (Flt3(h); R428 @ 10 μM)?
Answer: 1

Question: What about the “inhibition of Flt (in words)” value (Flt3(h); at 1 and 10 μM) of the same compound?
Answer: potently inhibits

Question: And the “efficiency in targeting Met(h)” value (Met(h); R428 @ 1 μM)?
Answer: 49

Question: What about the “efficiency in targeting Met(h)” value (Met(h); R428 @ 10 μM) of the same compound?
Answer: -1

Question: And the “efficiency in targeting PKCα(h)” value (PKCα(h); R428 @ 1 μM)?
Answer: 101

Question: And the “efficiency in targeting PKCα(h)” value (PKCα(h); R428 @ 10 μM)?
Answer: 96

Question: What about the “efficiency in targeting Aurora-A(h)” value (Aurora-A(h); R428 @ 1 μM) of the same compound?
Answer: 20

Question: And the “efficiency in targeting Aurora-A(h)” value (Aurora-A(h); R428 @ 10 μM)?
Answer: 3

Question: And the “inhibition of AuroraA (in words)” value (Aurora-A(h); at 1 and 10 μM)?
Answer: potently inhibits

Question: And the “efficiency in targeting Eph A 2(h)” value (Eph A 2(h); R428 @ 1 μM)?
Answer: 54

Question: And the “efficiency in targeting Eph A 2(h)” value (Eph A 2(h); R428 @ 10 μM)?
Answer: 12

Question: And the “efficiency in targeting Axl(h)” value (Axl(h); R428 @ 1 μM)?
Answer: −1

Question: What about the “efficiency in targeting Axl(h)” value (Axl(h); R428 @ 10 μM) of the same compound?
Answer: −1

Question: What about the “inhibition of AXL (in words)” value (Axl(h); kinase profiling results) of the same compound?
Answer: inhibits AXL as expected
